Experimental data from patent US20150105252A1, “SUBSTITUTED PYRAZOLES AS HERBICIDES” (E I DU PONT DE NEMOURS AND COMPANY, priority 2013, published 2015).

What was measured:
[1] = system: foxtail, giant; experiment: Test A preemergence; type: in vivo, Setaria faberii; settings: for Foxtail, Giant plant response rating (0 to 100 scale): visual injury approx. 10 days after treatment
Procedure, shortened: (§1)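 After sowing in a sand–loam mix, pots received compound preemergence by directed soil spray, or postemergence once plants reached the one- to two-leaf stage (2–10 cm). Formulation contained surfactant in a non-phytotoxic solvent. Injury was scored visually after ~10 greenhouse days, 0–100 scale.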

[2] = system: corn; experiment: Test A preemergence; type: in vivo, Zea mays; settings: for Corn plant response rating (0 to 100 scale): visual injury approx. 10 days after treatment
Procedure, shortened: as §1

[3] = system: barnyardgrass; experiment: Test A postemergence; type: in vivo, Echinochloa crus-galli
Procedure, shortened: as §1

[4] = system: crabgrass, large; experiment: Test A postemergence; type: in vivo, Digitaria sanguinalis
Procedure, shortened: as §1

[5] = system: foxtail, giant; experiment: Test A postemergence; type: in vivo, Setaria faberii
Procedure, shortened: as §1

[6] = system: morningglory; experiment: Test A postemergence; type: in vivo, Ipomoea spp.
Procedure, shortened: as §1

[7] = system: rice; experiment: Test B flood; type: in vivo, Oryza sativa; settings: 250 g ai/ha, visual rating on 0 to 100 scale (0 no effect, 100 complete control), 13 to 15 days
Procedure, shortened: (§2)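 Response scored visually, 0–100 relative to controls, 13–15 days after the compound was applied into paddy water; plants were at the 2-leaf stage in pots kept flooded to 3 cm.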

[8] = system: morningglory; experiment: Test C preemergence; type: in vivo, Ipomoea coccinea
Procedure, shortened: (§3)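 Greenhouse pot test: preemergence application onto freshly seeded loam/sand mix, postemergence application onto seedlings (1–4 leaves, 2–18 cm) in peat-vermiculite substrate. Responses scored visually 13 to 15 days later relative to controls, where 0 means no effect and 100 means complete control; a dash indicates no result.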

[9] = system: pigweed; experiment: Test C preemergence; type: in vivo, Amaranthus retroflexus
From the text: (§4) Seeds of plant species selected from blackgrass (Alopecurus myosuroides), ryegrass, Italian (Italian ryegrass, Lolium multiflorum), wheat (winter wheat, Triticum aestivum), galium (catchweed bedstraw, Galium aparine), corn (Zea mays), crabgrass, large (large crabgrass, Digitaria sanguinalis), foxtail, giant (giant foxtail, Setaria faberii), johnsongrass (Sorghum halepense), lambsquarters (Chenopodium album), morningglory (Ipomoea coccinea), nutsedge, yellow (yellow nutsedge, Cyperus esculentus), pigweed (redroot pigweed, Amaranthus retroflexus), ragweed (common ragweed, Ambrosia elation), soybean (Glycine max), barnyardgrass (Echinochloa crus-galli), oilseed rape (Brassica napus), waterhemp (common waterhemp, Amaranthus rudis), oat, wild (wild oat, Avena fatua), kochia (Kochia scoparia), Surinam grass (Brachiaria decumbens), foxtail, green (green foxtail, Setaria viridis), goosegrass (Eleusine indica), bromegrass, downy (downy bromegrass, Bromus tectorum), nightshade (eastern black nightshade, Solanum ptycanthum), cocklebur (common cocklebur, Xanthium strumarium), cupgrass, woolly (woolly cupgrass, Eriochloa villosa), bermudagrass (Cynodon dactylon), sunflower, (common oilseed sunflower, Helianthus annuus), Russian thistle (Salsola kali), and velvetleaf (Abutilon theophrasti) were planted into a blend of loam soil and sand and treated preemergence with test chemicals formulated in a non-phytotoxic solvent mixture which included a surfactant.
(§5) At the same time, plants selected from these crop and weed species and also chickweed (common chickweed, Stellaria media), canarygrass (littleseed canarygrass, Phalaris minor), and deadnettle (henbit deadnettle, Lamium amplexicaule), were planted in pots containing Redi-Earth® planting medium (Scotts Company, 14111 Scottslawn Road, Marysville, Ohio 43041) comprising spaghnum peat moss, vermiculite, wetting agent and starter nutrients and treated with postemergence applications of test chemicals formulated in the same manner. Plants ranged in height from 2 to 18 cm (1- to 4-leaf stage) for postemergence treatments. Treated plants and controls were maintained in a greenhouse for 13 to 15 days, after which time all species were compared to controls and visually evaluated. Plant response ratings, summarized in Table C, are based on a scale of 0 to 100 where 0 is no effect and 100 is complete control. A dash (-) response means no test result.

[10] = system: galium; experiment: Test C postemergence; type: in vivo, Galium aparine; settings: for Galium plant response rating: scale 0 to 100
From the text: as §4, §5

[11] = system: crabgrass, large; experiment: Test C postemergence; type: in vivo, Digitaria sanguinalis; settings: for Crabgrass, Large plant response rating: scale 0 to 100
Procedure, shortened: as §3

[12] = system: nutsedge, yellow; experiment: Test C postemergence; type: in vivo, Cyperus esculentus; settings: for Nutsedge, Yellow plant response rating: scale 0 to 100
From the text: as §4, §5

[13] = system: barnyardgrass; experiment: Test B flood; type: in vivo, Echinochloa crus-galli; settings: 250 g ai/ha, visual rating on 0 to 100 scale (0 no effect, 100 complete control), 13 to 15 days
Procedure, shortened: as §2

[14] = system: barnyardgrass; experiment: Test C preemergence; type: in vivo, Echinochloa crus-galli
From the text: as §4, §5

[15] = Preemergence, 1000 g ai/ha, 0 to 100 scale, 0 no effect, 100 complete control
[16] = Postemergence, 1000 g ai/ha, visual rating after approx. 10 days, 0 to 100 scale (0 no effect, 100 complete control)
[17] = preemergence, 31 g ai/ha, scale 0 to 100 (0 no effect, 100 complete control), 13 to 15 days
[18] = preemergence, 62 g ai/ha, 13 to 15 days, scale 0 to 100, 0 = no effect, 100 = complete control
[19] = preemergence, 125 g ai/ha, scale 0 to 100, 0 is no effect, 100 is complete control
[20] = postemergence, 250 g ai/ha, scale 0 to 100 (0 no effect, 100 complete control)
[21] = postemergence, 125 g ai/ha, scale 0 to 100, 0 no effect, 100 complete control
[22] = preemergence, 125 g ai/ha, visual injury, 0 to 100 scale, approx. 10 days
[23] = preemergence, 500 g ai/ha, visual injury after approx. 10 days, 0 to 100 scale (0 no effect, 100 complete control)
[24] = Postemergence, 500 g ai/ha, 0 to 100 scale (0 no effect, 100 complete control)
[25] = postemergence, 125 g ai/ha, about 10 days, visual rating on 0 to 100 scale (0 no effect, 100 complete control)
[26] = Preemergence, 4 g ai/ha, scale 0 to 100
[27] = Preemergence, 8 g ai/ha, scale 0 to 100
[28] = Preemergence, 16 g ai/ha, scale 0 to 100
[29] = preemergence, 31 g ai/ha, visual rating, scale 0 to 100 (0 no effect, 100 complete control), 13 to 15 days
[30] = preemergence, 62 g ai/ha, scale 0 to 100 (0 no effect, 100 complete control), 13 to 15 days
[31] = preemergence, 125 g ai/ha, 13 to 15 days, scale 0 to 100, 0 = no effect, 100 = complete control
[32] = preemergence, 250 g ai/ha, scale 0 to 100, 0 is no effect, 100 is complete control

`Cc1cc(C(=O)NCC(F)(F)F)nn1Cc1ccnc(C(F)(F)F)c1` [Compound 74] was tested, and the “Foxtail, Giant plant response rating” value [1, 15] was 100, the “Corn plant response rating” value [2, 15] was 90 and the “Barnyardgrass plant response rating” value [3, 16] was 90. The “Crabgrass, Large plant response rating” value [4, 16] was 100, the “Foxtail, Giant plant response rating” value [5, 16] was 90 and the “Morningglory plant response rating” value [6, 16] was 100. For the same compound, the “Plant response rating, Rice” value [7] was 0, the “Plant response rating (scale of 0 to 100), Morningglory” value ([8]; Preemergence, 250 g ai/ha) was 100 and the “Morningglory plant response rating” value [8, 17] was 75. The “Plant response rating, Morningglory” value [8, 18] was 100, the “Morningglory plant response rating” value [8, 19] was 100 and the “Plant response rating (scale of 0 to 100), Pigweed” value ([9]; Preemergence, 250 g ai/ha) was 100. For the same compound, the “Pigweed plant response rating” value [9, 17] was 100, the “Plant response rating, Pigweed” value [9, 18] was 100 and the “Pigweed plant response rating” value [9, 19] was 100. The “Galium plant response rating” value ([10]; Postemergence, 31 g ai/ha) was 60, the “Galium plant response rating” value ([10]; postemergence, 62 g ai/ha) was 60 and the “Plant response rating, Galium” value [10, 20] was 85. The “Plant response rating, Galium” value [10, 21] was 80, the “Crabgrass, Large plant response rating” value ([11]; Postemergence, 31 g ai/ha) was 10 and the “Crabgrass, Large plant response rating” value ([11]; postemergence, 62 g ai/ha) was 20. The “Plant response rating, Crabgrass, Large” value [11, 20] was 75, the “Plant response rating, Crabgrass, Large” value [11, 21] was 30 and the “Nutsedge, Yellow plant response rating” value ([12]; Postemergence, 31 g ai/ha) was 0. For the same compound, the “Nutsedge, Yellow plant response rating” value ([12]; postemergence, 62 g ai/ha) was 5, the “Plant response rating, Nutsedge, Yellow” value [12, 20] was 15 and the “Plant response rating, Nutsedge, Yellow” value [12, 21] was 5.

For `CCOc1cc(C(=O)NCC(F)(F)F)nn1Cc1cc(C(F)(F)F)nn1C` [Compound 140], the “Foxtail, Giant plant response rating” value [1, 22] was 100, the “Foxtail, Giant plant response rating” value [1, 23] was 100 and the “Corn plant response rating” value [2, 22] was 10. For the same compound, the “Corn plant response rating” value [2, 23] was 80, the “Barnyardgrass plant response rating” value [3, 24] was 90 and the “Barnyardgrass plant response rating” value [3, 25] was 70. For the same compound, the “Crabgrass, Large plant response rating” value [4, 24] was 90, the “Crabgrass, Large plant response rating” value [4, 25] was 70 and the “Foxtail, Giant plant response rating” value [5, 24] was 90. The “Foxtail, Giant plant response rating” value [5, 25] was 80, the “Morningglory plant response rating” value [6, 24] was 90 and the “Morningglory plant response rating” value [6, 25] was 90. The “Plant response rating, Rice” value [7] was 40, the “Plant response rating, Barnyardgrass” value [13] was 55 and the “Plant response rating, Morningglory” value [8, 26] was 5. The “Plant response rating, Morningglory” value [8, 27] was 5, the “Plant response rating, Morningglory” value [8, 28] was 95 and the “Morningglory plant response rating” value [8, 29] was 90. For the same compound, the “Plant response rating, Pigweed” value [9, 26] was 80, the “Plant response rating, Pigweed” value [9, 27] was 100 and the “Plant response rating, Pigweed” value [9, 28] was 100. For the same compound, the “Pigweed plant response rating” value [9, 29] was 100, the “Plant response rating, Barnyardgrass” value [14, 26] was 0 and the “Plant response rating, Barnyardgrass” value [14, 27] was 5. The “Plant response rating, Barnyardgrass” value [14, 28] was 30 and the “Barnyardgrass plant response rating” value [14, 17] was 80.

For `O=C(NCC(F)(F)F)c1cc(CCF)n(Cc2ccnc(C(F)(F)F)c2)n1` [Compound 175], the “Foxtail, Giant plant response rating (0 to 100 scale)” value ([1]; preemergence, 125 g ai/ha) was 100, the “Foxtail, Giant plant response rating” value [1, 23] was 100 and the “Corn plant response rating (0 to 100 scale)” value ([2]; preemergence, 125 g ai/ha) was 50. For the same compound, the “Corn plant response rating” value [2, 23] was 80, the “Barnyardgrass plant response rating” value [3, 24] was 90 and the “Barnyardgrass plant response rating” value [3, 25] was 70. The “Crabgrass, Large plant response rating” value [4, 24] was 90, the “Crabgrass, Large plant response rating” value [4, 25] was 90 and the “Foxtail, Giant plant response rating” value [5, 24] was 90. The “Foxtail, Giant plant response rating” value [5, 25] was 80, the “Morningglory plant response rating” value [6, 24] was 90 and the “Morningglory plant response rating” value [6, 25] was 80. The “Plant response rating, Rice” value [7] was 25, the “Plant response rating, Barnyardgrass” value [13] was 35 and the “Morningglory plant response rating” value [8, 29] was 95. For the same compound, the “Morningglory plant response rating” value [8, 30] was 100, the “Plant response rating, Morningglory” value [8, 31] was 100 and the “Morningglory plant response rating” value [8, 32] was 100. For the same compound, the “Pigweed plant response rating” value [9, 29] was 100, the “Pigweed plant response rating” value [9, 30] was 100 and the “Plant response rating, Pigweed” value [9, 31] was 100. The “Pigweed plant response rating” value [9, 32] was 100, the “Barnyardgrass plant response rating” value [14, 29] was 80 and the “Barnyardgrass plant response rating” value [14, 30] was 80. The “Plant response rating, Barnyardgrass” value [14, 31] was 100 and the “Barnyardgrass plant response rating” value [14, 32] was 100.

With `O=C(NC1CC1)c1cc(CCF)n(Cc2ccnc(C(F)(F)F)c2)n1` [Compound 176] the “Foxtail, Giant plant response rating (0 to 100 scale)” value ([1]; preemergence, 125 g ai/ha) was 90, the “Foxtail, Giant plant response rating” value [1, 23] was 100 and the “Corn plant response rating (0 to 100 scale)” value ([2]; preemergence, 125 g ai/ha) was 10. The “Corn plant response rating” value [2, 23] was 90, the “Barnyardgrass plant response rating” value [3, 24] was 90 and the “Barnyardgrass plant response rating” value [3, 25] was 60. For the same compound, the “Crabgrass, Large plant response rating” value [4, 24] was 90, the “Crabgrass, Large plant response rating” value [4, 25] was 80 and the “Foxtail, Giant plant response rating” value [5, 24] was 90. For the same compound, the “Foxtail, Giant plant response rating” value [5, 25] was 80, the “Morningglory plant response rating” value [6, 24] was 90 and the “Morningglory plant response rating” value [6, 25] was 90. For the same compound, the “Plant response rating, Rice” value [7] was 0, the “Plant response rating, Barnyardgrass” value [13] was 35 and the “Morningglory plant response rating” value [8, 29] was 65. For the same compound, the “Morningglory plant response rating” value [8, 30] was 98, the “Plant response rating, Morningglory” value [8, 31] was 98 and the “Morningglory plant response rating” value [8, 32] was 100. For the same compound, the “Pigweed plant response rating” value [9, 29] was 100, the “Pigweed plant response rating” value [9, 30] was 100 and the “Plant response rating, Pigweed” value [9, 31] was 100. For the same compound, the “Pigweed plant response rating” value [9, 32] was 100, the “Barnyardgrass plant response rating” value [14, 29] was 25 and the “Barnyardgrass plant response rating” value [14, 30] was 100. For the same compound, the “Plant response rating, Barnyardgrass” value [14, 31] was 100 and the “Barnyardgrass plant response rating” value [14, 32] was 100.
